Source: patent US20020086893A1, “Medicament” (SmithKline Beecham p.l.c., priority 1990, published 2002)
Structures can show the parent of a compound that is named as a salt.

In the case of `CCCCc1ncc(CC(Cc2ccccc2)C(=O)O)n1Cc1ccccc1Cl` (stereo not drawn) (as salt: hydrochloride) [Example 2, 3-[2-n-Butyl-1-{(2-chlorophenyl)methyl}-1H-imidazol-5-yl]-2-benzylpropanoic Acid], the melting point is reported as 118 to 120 °C.
In the case of `CCCSc1ncc(C[C@H](NC(=O)CCC)C(=O)O)n1Cc1ccccc1Cl` [Example 1, 3-[(2-Chlorophenyl)methyl]-2-propylthio-N-butyrylhistidine], the melting point is reported as 178 to 181 °C.
Work on `CCCCc1nc2cc(Br)cc(C(=O)O)c2n1Cc1ccccc1Cl` [Example 4, 5-Bromo-2-n-butyl-1-(2-chlorophenyl)methyl-1H-benzimidazole-7-carboxylic Acid] yielded a melting point of 254 to 255 °C.
